{"source": "patent US20040224953A1", "about": "“Fused bicyclic-substituted amines as histamine-3 receptor ligands” (priority 2003, published 2004)", "data": [{"molecule": "C[C@@H]1CCCN1CCc1nc2cc(-c3ccc(C#N)cc3)ccc2o1", "note": "[Example 24E, 4-{2-[2-(2-(R)-methyl-pyrrolidin-1-yl)-ethyl]-benzooxazol-5-yl}-benzonitrile]", "values": [{"measurement": "melting point", "result": "70 to 72", "unit": "°C"}]}]}
